# Earlier results in patent publication US20150231284A1, “MOLECULAR PROBE FOR IMAGING OF PANCREATIC ISLET AND THE PRECURSOR, AND USE OF THE SAME” (Kyoto University, priority 2009, published 2015).
# How the values were obtained:
# pancreatic islet cells = settings: Document 2; cited from earlier work
# [1] = system: GLP-1R-positive tumor cells; settings: Document 2; cited from earlier work
substance,measurement,setting,value
Lys^40(Ahx-DTPA-^111In)Exendin-4(9-39),uptake in pancreatic islets,pancreatic islet cells,about 0.4%
same,uptake in the GLP-1R-positive tumor cells,[1],about 7.5%
